{"source": "paper PMC10449633", "about": "(Nature Chemical Biology, 2023)", "key": {"[1]": {"tested_on": "human peripheral blood mononuclear cells (PBMCs)", "assay": "Cytokine secretion assay, stimulated human PBMCs (MSD U-PLEX)", "type": "cell-based", "settings": "for IC50: 24 h, tested 0.025–25,000 nM"}, "SARS-CoV-2": {"tested_on": "SARS-CoV-2", "type": "cell-based", "settings": "for infectious virus particle production: 48 h"}, "[2]": {"tested_on": "Sec61 WT TNFa(FL) reporter cells", "assay": "CTG (CellTiter-Glo) viability of TNFa(FL) reporter cells expressing Sec61 WT", "type": "cell-based", "settings": "replicate columns", "description": "Supplement 41589_2023_1326_MOESM7_ESM.xlsx, sheet \"Panel B\" | column: Sec61 WT - CTG (TNFa(FL))"}, "human PBMCs": {"tested_on": "human PBMCs", "settings": "concentrations up to 20 µM; PBMCs and splenocytes"}, "Vero E6 cells": {"tested_on": "Vero E6 cells", "settings": "Mock infected 48 h"}, "Sec61α R66I": {"biological_target": "Sec61α R66I (Canis lupus familiaris, UniProt P38377, R66I)", "sequence (P38377 whole entry R66I)": "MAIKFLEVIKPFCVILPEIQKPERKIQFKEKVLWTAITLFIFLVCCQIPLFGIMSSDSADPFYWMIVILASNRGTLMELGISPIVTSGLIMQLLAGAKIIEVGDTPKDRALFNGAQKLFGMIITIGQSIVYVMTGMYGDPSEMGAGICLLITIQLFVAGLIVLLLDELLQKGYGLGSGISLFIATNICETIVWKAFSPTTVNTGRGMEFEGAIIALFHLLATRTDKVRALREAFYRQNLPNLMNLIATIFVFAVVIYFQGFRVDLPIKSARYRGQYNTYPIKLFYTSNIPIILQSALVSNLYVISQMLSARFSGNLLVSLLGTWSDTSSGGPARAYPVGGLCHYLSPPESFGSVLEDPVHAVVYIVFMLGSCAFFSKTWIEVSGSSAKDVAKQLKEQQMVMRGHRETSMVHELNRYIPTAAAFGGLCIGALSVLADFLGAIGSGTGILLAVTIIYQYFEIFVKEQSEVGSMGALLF", "sequence (P60059 whole entry, further chain)": "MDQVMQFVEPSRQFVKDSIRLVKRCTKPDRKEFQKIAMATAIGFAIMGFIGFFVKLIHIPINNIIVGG", "sequence (P60468 whole entry, further chain)": "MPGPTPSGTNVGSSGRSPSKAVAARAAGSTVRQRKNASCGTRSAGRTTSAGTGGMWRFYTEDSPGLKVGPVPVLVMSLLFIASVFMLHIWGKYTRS", "assay": "Luciferase reporter assay in HEK293 cells expressing Sec61α R66I", "set-up": "remaining activity: dose or concentration left out as unconfirmed", "quoted_text": "(§1) Data are mean values ± s.d. from n = 2 independent experiments.\n(§2) HEK293T cells (0.3 × 10^6) were seeded per well of a six-well plate and incubated at 37 °C in 5% CO2 for 24 h to adhere. Each of the two wells was transfected with 1 µg of plasmid encoding a luciferase with the signal peptide of either VCAM1 or pPL using PEI in a 5:1 ratio, after which cells were returned to the incubator for a further 24 h. Transfected cells were then resuspended following trypsinization, cell count estimated using a TC20 Automated Cell Counter (BioRad) and diluted to seed a 96-well flat-bottom plate with 1.6 × 10^4 cells per well. […] Cells were then incubated for a further 24 h, after which the luciferase-containing media were transferred to a clean 96-well plate and stored at −20 °C. Luciferase activity of the media was estimated using a Gaussia-GLOW Juice Luciferase Assay kit from PJK Biotech GmbH as per the manufacturer’s instructions. Luminescence was measured using an EnSpire Multimode plate reader (PerkinElmer). Background luminescence from media placed in a well with neither cells nor drug was subtracted from all values, and measurements were calculated as a percentage of luminescence intensity of a well expressing the appropriate luciferase construct in the absence of any drug. Curves were fitted, and IC50 values were calculated using GraphPad Prism 8.\nWT canine Sec61 was cloned into pcDNA5/FRT/TO (Thermo Fisher Scientific), and point mutations were generated using PCR. All mutants were sequence verified. HEK293 Flp-In T-REx cells (Thermo Fisher Scientific, R78007) were cultured in Dulbecco’s modified Eagle’s medium (Gibco) supplemented with 10% FBS (Gibco) at 37 °C in a humidified 5% CO2 atmosphere. Approximately 0.3 µg of pOG44 and 1 µg of targeting construct plasmids were mixed in 250 µl of OptiMEM (Thermo Fisher Scientific, 51985-026). A total of 3 µl (3 µg) Lipofectamine3000 transfection reagent was then added to the DNA mix and incubated at room temperature for 20 min, and the whole mixture was added to the cells. Cells were exposed to 100 µg ml^−^1 hygromycin B (Invitrogen) and 10 µg ml^−^1 blasticidin for 3–4 weeks until the appearance of resistant colonies. Colonies were expanded into T75 flasks and induced with doxycycline (Sigma-Aldrich, D9891) at a concentration of 1–5 µg ml^−^1 for 48 h. Cells were collected, and total RNA was extracted followed by cDNA amplification and sequencing of Sec61 with gene-specific PCR primers to confirm. Cells were then used for the luciferase reporter assays as above.\n(§3) Data are mean values ± SD and are representative of n = 2 independent experiments."}, "Sec61α S82P": {"biological_target": "Sec61α S82P (Canis lupus familiaris, UniProt P38377, S82P)", "sequence (P60468 whole entry)": "as the sequence (P60468 whole entry, further chain) above", "sequence (P38377 whole entry S82P)": "as the sequence (P38377 whole entry R66I) above, with I66R, S82P counted along it", "sequence (P60059 whole entry, further chain)": "as the sequence (P60059 whole entry, further chain) above", "assay": "Luciferase reporter assay in HEK293 cells expressing Sec61α S82P", "set-up": "remaining activity: dose or concentration left out as unconfirmed", "settings": "HEK293, 24 h, read-out: luciferase reporter activity (% of no-drug control), S82P", "quoted_text": "as §1, §2\nHEK293 Flp-In T-REx cells (Thermo Fisher Scientific, R78007) were cultured in Dulbecco’s modified Eagle’s medium (Gibco) supplemented with 10% FBS (Gibco) at 37 °C in a humidified 5% CO2 atmosphere. Approximately 0.3 µg of pOG44 and 1 µg of targeting construct plasmids were mixed in 250 µl of OptiMEM (Thermo Fisher Scientific, 51985-026). A total of 3 µl (3 µg) Lipofectamine3000 transfection reagent was then added to the DNA mix and incubated at room temperature for 20 min, and the whole mixture was added to the cells. Cells were exposed to 100 µg ml^−^1 hygromycin B (Invitrogen) and 10 µg ml^−^1 blasticidin for 3–4 weeks until the appearance of resistant colonies. Colonies were expanded into T75 flasks and induced with doxycycline (Sigma-Aldrich, D9891) at a concentration of 1–5 µg ml^−^1 for 48 h. Cells were collected, and total RNA was extracted followed by cDNA amplification and sequencing of Sec61 with gene-specific PCR primers to confirm. Cells were then used for the luciferase reporter assays as above.\nas §3"}}, "note": "Several values for one entry are separate records, joined by “and”; a condition that tells them apart may be missing. Equal entries are not always repeated. Where two headings read alike, the source gives them in different places. Numbered stars: 1 amine (or outer) side, 2 acyl side, 3 side chain; on linkers, the order of the positions; unused ones are H or OH. Square brackets hold non-standard residues; d marks the D form. Peptide text beside a SMILES is read from it. ξ: configuration not given here. X1 = CN(C(Cc1cn(Cc2ccc(Br)cc2)c2ccccc12)C(=O)[*:2])[*:1]; ξAla(CF3) = NC(CC(F)(F)F)C(=O)O; X2 = N#CCCC(O[*:1])C(=O)[*:2]; NMeL = CN[CH](CC(C)C)C(=O)O; NMeA = CN[CH](C)C(=O)O"}
{"smiles": "CC(C)CC1NC(=O)C(Cc2cn(Cc3ccc(Br)cc3)c3ccccc23)N(C)C(=O)C(CC(F)(F)F)NC(=O)C(CC(C)C)N(C)C(=O)C(CC(F)(F)F)NC(=O)C(CCC#N)OC(=O)C(C)N(C)C1=O", "note": "(stereo not drawn) [KZR-8445] (cyclo([X1]L[NMeA][X2][ξAla(CF3)][NMeL][ξAla(CF3)]); configuration not given here)", "values": [{"measurement": "IC50", "setting": "[1]; Homo sapiens, PBMC, LPS-stimulation, read-out: IC50, IL-1β secretion", "value": "> 25", "unit": "µM"}, {"measurement": "IC50", "setting": "[1]; Homo sapiens, PBMC, LPS-stimulation, read-out: IC50, IL-23 secretion", "value": 0.167, "unit": "µM"}, {"measurement": "IC50", "setting": "[1]; Homo sapiens, PBMC, anti-CD3/CD28-stimulation, read-out: IC50, GM-CSF secretion", "value": 0.189, "unit": "µM"}, {"measurement": "IC50", "setting": "[1]; Homo sapiens, PBMC, anti-CD3/CD28-stimulation, read-out: IC50, IL-2 secretion", "value": 0.0422, "unit": "µM"}, {"measurement": "IC50", "setting": "[1]; Homo sapiens, PBMC, anti-CD3/CD28-stimulation, read-out: IC50, TNFα secretion", "value": 0.0426, "unit": "µM"}, {"measurement": "IC50", "setting": "[1]; LPS-stimulation, read-out: IC50, IL-23 secretion", "value": "0.233 µM and 0.188 µM and 0.19 µM"}, {"measurement": "IC50s, secretion of six of seven tested cytokines", "setting": "[1]; activated human PBMCs and mouse splenocytes", "value": "submicromolar"}, {"measurement": "IC50", "setting": "[1]; anti-CD3/CD28-stimulation, read-out: IC50, GM-CSF secretion", "value": "0.185 µM and 0.222 µM and 0.212 µM"}, {"measurement": "IC50", "setting": "[1]; anti-CD3/CD28-stimulation, read-out: IC50, IL-2 secretion", "value": "0.0387 µM and 0.039 µM and 0.0266 µM"}, {"measurement": "IC50", "setting": "[1]; anti-CD3/CD28-stimulation, read-out: IC50, TNFα secretion", "value": "0.0318 µM and 0.0375 µM and 0.0262 µM"}, {"measurement": "secretion of IL-1β", "setting": "[1]; not Sec61-dependent", "value": "unaffected"}, {"measurement": "infectious virus particle production", "setting": "SARS-CoV-2; 0.01 uM", "value": "2000000 TCID50 per milliliter and 1175555 TCID50 per milliliter"}, {"measurement": "infectious virus particle production", "setting": "SARS-CoV-2; 10 uM", "value": "928.318 TCID50 per milliliter and 632.456 TCID50 per milliliter"}, {"measurement": "CoV-2 replication", "setting": "SARS-CoV-2; Vero cells", "value": "blocked"}, {"measurement": "Sec61 WT - CTG (TNFa(FL))", "setting": "[2]; 0.32 nM", "value": "111 and 110 and 116"}, {"measurement": "Sec61 WT - CTG (TNFa(FL))", "setting": "[2]; 1.6 nM", "value": "106 and 113 and 116"}, {"measurement": "Sec61 WT - CTG (TNFa(FL))", "setting": "[2]; 8 nM", "value": "110 and 111 and 115"}, {"measurement": "Sec61 WT - CTG (TNFa(FL))", "setting": "[2]; 40 nM", "value": "112 and 121 and 115"}, {"measurement": "Sec61 WT - CTG (TNFa(FL))", "setting": "[2]; 200 nM", "value": "108 and 114 and 116"}, {"measurement": "Sec61 WT - CTG (TNFa(FL))", "setting": "[2]; 1000 nM", "value": "105 and 108 and 113"}, {"measurement": "Sec61 WT - CTG (TNFa(FL))", "setting": "[2]; 5000 nM", "value": "95 and 105 (2×)"}, {"measurement": "Sec61 WT - CTG (TNFa(FL))", "setting": "[2]; 25000 nM", "value": "92 and 89 (2×)"}, {"measurement": "effects on cell viability", "setting": "human PBMCs", "value": "minimal effects"}, {"measurement": "cell viability", "setting": "Vero E6 cells; 0.01 uM", "value": "91.0268 and 102.167 and 114.581"}, {"measurement": "cell viability", "setting": "Vero E6 cells; 0.04 uM", "value": "90.9801 and 99.0668 and 98.0954"}, {"measurement": "cell viability", "setting": "Vero E6 cells; 0.12 uM", "value": "93.1234 and 96.6644 and 96.0334"}, {"measurement": "cell viability", "setting": "Vero E6 cells; 0.37 uM", "value": "79.1404 and 83.8559 and 91.7442"}, {"measurement": "cell viability", "setting": "Vero E6 cells; 1.11 uM", "value": "83.2343 and 88.2826 and 88.422"}, {"measurement": "cell viability", "setting": "Vero E6 cells; 3.33 uM", "value": "85.0888 and 89.2631 and 88.8876"}, {"measurement": "cell viability", "setting": "Vero E6 cells; 10 uM", "value": "76.0738 and 86.0259 and 84.7152"}, {"measurement": "remaining activity at 0.00018303 µM", "setting": "Sec61α R66I; HEK293, 24 h, read-out: luciferase reporter activity (% of no-drug control), R66I, Drug nM (log10) 0.18303", "value": 90.3, "unit": "%"}, {"measurement": "remaining activity at 0.000660151 µM", "setting": "Sec61α R66I; HEK293, 24 h, read-out: luciferase reporter activity (% of no-drug control), R66I, Drug nM (log10) 0.660151", "value": 85.2, "unit": "%"}, {"measurement": "remaining activity at 0.00113727 µM", "setting": "Sec61α R66I; HEK293, 24 h, read-out: luciferase reporter activity (% of no-drug control), R66I, Drug nM (log10) 1.13727", "value": 74.3, "unit": "%"}, {"measurement": "remaining activity", "setting": "Sec61α R66I; HEK293, 24 h, read-out: luciferase reporter activity (% of no-drug control), R66I, Drug nM (log10) 1.61439", "value": 58.4, "unit": "%"}, {"measurement": "remaining activity", "setting": "Sec61α R66I; HEK293, 24 h, read-out: luciferase reporter activity (% of no-drug control), R66I, Drug nM (log10) 2.09151", "value": 48.6, "unit": "%"}, {"measurement": "remaining activity", "setting": "Sec61α R66I; HEK293, 24 h, read-out: luciferase reporter activity (% of no-drug control), R66I, Drug nM (log10) 2.56864", "value": 41.2, "unit": "%"}, {"measurement": "remaining activity", "setting": "Sec61α R66I; HEK293, 24 h, read-out: luciferase reporter activity (% of no-drug control), R66I, Drug nM (log10) 3.04576", "value": 39.3, "unit": "%"}, {"measurement": "remaining activity", "setting": "Sec61α R66I; HEK293, 24 h, read-out: luciferase reporter activity (% of no-drug control), R66I, Drug nM (log10) 3.52288", "value": 35.2, "unit": "%"}, {"measurement": "remaining activity at 0.004 µM", "setting": "Sec61α R66I; HEK293, 24 h, read-out: luciferase reporter activity (% of no-drug control), R66I, Drug nM (log10) 4", "value": 39, "unit": "%"}, {"measurement": "remaining activity at 0.00050805 µM", "setting": "Sec61α R66I; HEK293, 24 h, read-out: luciferase reporter activity (% of no-drug control), R66I, Drug nM (log10) -0.29409", "value": 90, "unit": "%"}, {"measurement": "effect of R66I mutation on sensitivity in secreted GLuc assay", "setting": "Sec61α R66I; HEK293 cells", "value": "conferred resistance"}, {"measurement": "remaining activity at 0.00018303 µM", "setting": "Sec61α S82P; Drug nM (log10) 0.18303", "value": 99, "unit": "%"}, {"measurement": "remaining activity at 0.000660151 µM", "setting": "Sec61α S82P; Drug nM (log10) 0.660151", "value": 80.3, "unit": "%"}, {"measurement": "remaining activity at 0.00113727 µM", "setting": "Sec61α S82P; Drug nM (log10) 1.13727", "value": 73.5, "unit": "%"}, {"measurement": "remaining activity", "setting": "Sec61α S82P; Drug nM (log10) 1.61439", "value": 47.5, "unit": "%"}]}
